pIC50: −log10 of the molar value.
Legend:
[1] = target: T1, human Rho kinase II (ROCK-II (h)) (Homo sapiens, UniProt O75116); assay: Commercial inhibition assay with recombinant human ROCKII, IC50 curves (FIGS. 8, 9); type: biochemical
T1 construct: purchased
From the text: Referring to FIGS. 8 and 9 inhibiton of ROCKII activity and determination of IC50 may also be done throught the use of known (i.e. commercial) inhibition assays that use recombinant human ROCKII.

ROCK II = target: T2, ROCK II (Rattus norvegicus, UniProt Q62868); assay: ROCK II kinase assay with [γ-32P] ATP and myelin basic protein substrate (FIG. 3); type: biochemical; settings: 100 μM ATP, 30 min at 30° C.
T2 construct: purchased Upstate (Lake Placid, N.Y.)
From the text: The ability of compounds to inhibit ROK activity may be tested in a cell-free assay system using recombinant ROK, radiaoactive ATP, and Myelin basic Protein (MBP). MBP is a highly phosphorylated protein, is inexpensive to buy in purified form, is phosphorylated by ROK, and is used as the assay substrate for phosphorylation. Recombinant ROK has been prepared from a number of sources. Overexpression in mammalian cells provides a convenient, easily renewed source of ROK activity. Measurement of Rho-associated kinase (ROK) activity is important to determine the potency of novel inhibitors. MBP is a substrate for ROK and a number of other protein kinases, making it useful both to quantitate ROK activity and to indicate the potency and specificity of novel inhibitors for ROK. […]
ROCK II was assayed in 20 mM MOPS, pH 7.2, 25 mM β-glycerophosphate, 5 mM EGTA, 1 mM sodium orthovanadate, 1 mM dithiothreitol with dephosphorylated myelin basic protein (MBP, 0.2 mg/ml) as substrate with or without BA-1016 or BA-1017. […] Assays were initiated by adding Mg^2+/ATP and terminated by spotting 40 μl of each reaction onto phosphocellulose paper (P81 paper, Whatman), followed by washes in 0.75% phosphoric acid to remove ATP and then dried, put in scintillation cocktail and counted to measure ^32P incorporation. Radioactivity is measured using a scintillation counter. […]

[2] = test system: retinal ganglion cells (RGC); assay: Retinal ganglion cell survival 7 days after optic nerve axotomy, intravitreal injection; type: in vivo, rat; settings: for % Survival / Average RGC counts: 7 days after axotomy
From the text: The retinal ganglion cell (RGC) response to injury and ischemia has been well documented (Berkelaar et al., 1994; Selles-Navarro et al., 1996; Vidal-Sanz et al., 1988; Villegas-Perez et al., 1998; Villegas-Perez et al., 1993). Transection of the optic nerve (ON) in the adult rat, as a model of fiber tract lesion in the adult mammalian CNS, results in delayed, mainly apoptotic death of 80-90% of retinal ganglion cells (RGCs) within 14 days post-lesion. Because of good surgical accessibility of the retina and the optic nerve, the retino-tectal projection represents not only a convenient model to study the molecular mechanisms underlying neuronal death but also serves as a suitable system for investigating potential neuroprotective agents in vivo.
After optic nerve transection, many of the retinal ganglion cells (RGC) in the eye die by apoptosis. The ability of BA-1016 to support RGC cell survival after optic nerve injury was tested. A single injection of BA-1016 was made in the eye, and one week later cell survival was assessed. Three animals were examined for each treatment group. Cell survival was improved one week after BA-1016. Neurotrophic factors that are known to rescue RGCs also give improved cell surival one week after axotomy, but multiple or chronic application is needed to increase the number of surviving cells.
Experiments were performed on adult female CD rats (180-200 g; Charles River, Canada). Animals were cared for according to the Canadian Council on Animal Care. Rats were under general anaesthesia with isofluorane connected to Moduflex Access anaesthesia machine during experimental procedures. Ophthalmic eye ointment (Polysporin) was applied to prevent corneal desiccation. […] All rats were pre-labelled with Fluorogold one week prior to optic nerve lesion.
One week after Fluorogold application, the left optic nerve was transected 1 mm from the eye. […] There are blood vessels on pia and optic nerve. The pia mater sheath was lifted and a lateral incision exposed the optic nerve. It was important not to cut the optic nerve before cutting the pia. When pia was cut, the optic nerve was moved gently to dislodge it from its sheath so that the scissors could be slipped under it to cut it. It was important to not pull the nerve at this point to avoid compromising the blood supply. When the optic nerve was well exposed, small scissors were slid tangentially under optic nerve, making sure to see their end on other side of the nerve, then cutting with one clean cut at 1 mm from the eye. Scissor blades were used as a reference for the 1 mm distance.
In the group of animals assigned to receive intravitreal injection after axotomy, the compounds of interest were injected into the vitreous space. […] The needle was removed after one minute. […]
A binocular microscope was used to view the eye during injection. The skin was closed with staples (auto clips) and the integrity of the retinal vasculature was evaluated by a postoperative ophthalmoscopy using a water-covered microscope slide. […] Finally the animals were returned to the cage and closely monitored until awakened
Seven days after axotomy, animals were killed by injecting an overdose of Chloral hydrate intraperitoneally and then they were fixed by perfusion with 4% paraformaldehyde (PFA), 0.1 M phosphate buffer; the eyes were remove carefully transecting the ocular muscles with scissors and forceps. […] RGCs are examined under the fluorescence microscope with an UV filter (365/420). […]

T2 sequence (Q62868 11-550 limits assumed): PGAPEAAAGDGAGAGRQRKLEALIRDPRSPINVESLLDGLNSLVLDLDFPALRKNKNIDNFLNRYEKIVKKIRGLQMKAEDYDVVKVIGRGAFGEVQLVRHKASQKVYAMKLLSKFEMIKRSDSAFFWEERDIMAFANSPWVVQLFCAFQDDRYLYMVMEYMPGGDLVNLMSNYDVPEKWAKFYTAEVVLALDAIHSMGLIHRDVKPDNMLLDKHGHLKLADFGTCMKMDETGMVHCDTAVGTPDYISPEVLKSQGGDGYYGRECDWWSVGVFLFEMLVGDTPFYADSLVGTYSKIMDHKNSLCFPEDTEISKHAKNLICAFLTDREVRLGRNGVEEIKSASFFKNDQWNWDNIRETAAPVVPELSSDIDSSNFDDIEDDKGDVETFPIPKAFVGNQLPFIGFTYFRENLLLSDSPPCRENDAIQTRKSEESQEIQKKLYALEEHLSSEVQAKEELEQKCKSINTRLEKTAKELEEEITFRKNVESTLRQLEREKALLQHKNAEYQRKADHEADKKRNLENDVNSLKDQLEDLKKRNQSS
T1 sequence (O75116 whole entry): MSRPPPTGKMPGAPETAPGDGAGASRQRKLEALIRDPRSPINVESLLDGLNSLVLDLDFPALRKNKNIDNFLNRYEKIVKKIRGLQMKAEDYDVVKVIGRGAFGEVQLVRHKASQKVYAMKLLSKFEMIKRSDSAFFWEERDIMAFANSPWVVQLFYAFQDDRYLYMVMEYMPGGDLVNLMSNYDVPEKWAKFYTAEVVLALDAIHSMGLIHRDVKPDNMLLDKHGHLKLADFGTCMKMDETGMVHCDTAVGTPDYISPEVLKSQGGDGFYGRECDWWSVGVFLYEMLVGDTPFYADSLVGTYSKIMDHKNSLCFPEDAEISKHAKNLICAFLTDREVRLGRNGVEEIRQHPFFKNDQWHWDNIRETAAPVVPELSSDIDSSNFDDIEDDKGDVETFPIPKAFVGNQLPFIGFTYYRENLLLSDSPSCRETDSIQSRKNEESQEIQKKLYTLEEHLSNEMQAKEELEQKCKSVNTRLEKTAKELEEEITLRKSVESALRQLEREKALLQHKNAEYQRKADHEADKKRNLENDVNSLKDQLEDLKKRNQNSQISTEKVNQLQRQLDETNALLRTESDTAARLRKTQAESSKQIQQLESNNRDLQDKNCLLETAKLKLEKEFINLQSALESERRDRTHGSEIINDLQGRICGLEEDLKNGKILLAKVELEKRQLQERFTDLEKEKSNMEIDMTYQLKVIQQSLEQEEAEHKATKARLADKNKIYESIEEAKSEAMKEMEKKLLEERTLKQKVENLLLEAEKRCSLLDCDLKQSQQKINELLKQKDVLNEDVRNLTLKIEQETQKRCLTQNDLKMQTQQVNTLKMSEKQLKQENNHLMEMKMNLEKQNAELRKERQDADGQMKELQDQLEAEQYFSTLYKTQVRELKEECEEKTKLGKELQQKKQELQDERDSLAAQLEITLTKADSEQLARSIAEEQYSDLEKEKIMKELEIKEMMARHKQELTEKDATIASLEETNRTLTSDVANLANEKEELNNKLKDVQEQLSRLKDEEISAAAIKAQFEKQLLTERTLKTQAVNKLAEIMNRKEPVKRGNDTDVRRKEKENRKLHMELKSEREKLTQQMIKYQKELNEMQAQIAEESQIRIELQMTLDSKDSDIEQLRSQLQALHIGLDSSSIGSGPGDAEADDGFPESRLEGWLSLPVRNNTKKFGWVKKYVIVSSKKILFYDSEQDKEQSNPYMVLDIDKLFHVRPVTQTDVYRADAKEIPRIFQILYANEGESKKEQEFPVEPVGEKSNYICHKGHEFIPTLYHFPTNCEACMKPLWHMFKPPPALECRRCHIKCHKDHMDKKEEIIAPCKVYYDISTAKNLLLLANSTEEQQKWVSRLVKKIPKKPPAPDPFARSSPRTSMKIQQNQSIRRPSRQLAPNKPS

(R)-trans-4-(But-3′-en-1′-amino)-N-(4″-pyridyl)cyclohexane Carboxamide Dihydrochloride [BA-1016]
pIC50 [1]: 5.72
inhibition of ROCKII activity (FIG. 3) (ROCK II): inhibition of ROCKII activity
% Survival ([2]; Axotomy + 0.1 mM): 59%
Average RGC counts ([2]; Axotomy + 0.1 mM): 1352
% Survival ([2]; Axotomy + 1 mM): 60%
Average RGC counts ([2]; Axotomy + 1 mM): 1378
RGC cell survival after optic nerve injury ([2]; single injection in the eye, one week): improved

— patent US20040138272A1, “1,4-Substituted cyclohexane derivatives” (priority 2002, published 2004)
